Here are results for 3 compounds from publication PMC3901665, “Characterization of Glycolytic Enzymes - rAldolase and rEnolase of Leishmania donovani, Identified as Th1 Stimulatory Proteins, for Their Immunogenicity and Immunoprophylactic Efficacies against Experimental Visceral Leishmaniasis” (PLoS ONE, 2014).

Holding throughout (assay type): biochemical, Leishmania donovani
Assay [1] relates to T1, rLdEno (L. donovani enolase).
T1 construct: gene ENO; full-length ORF (PCR product 1290 bp), N-terminal 6xHis, pET-28a, E. coli C41(DE3), Ni-NTA
Nature of the assay: spectrophotometric PEP formation at […] nm, Michaelis-Menten. The conditions noted are these: 20 mM Tris-HCl pH 7.5, 2 mM MgSO4, 75 mM KCl, 25°C; 0-10 mM 2PGA.

In assay [2] the test system is T2, rLdAld (L. donovani aldolase).
T2 construct: gene ALD; full-length ORF (PCR product 1125 bp), 6xHis tag, pET-28a, E. coli, purified on Ni-NTA
Nature of the assay: hydrazine assay at […] nm, Michaelis-Menten. The conditions noted are these: hydrazine sulfate as detection reagent; 0.1-7 mM substrate; pH and temperature not given.

The subject of assay [3] is T1, rLdEno (L. donovani enolase). Kind of assay: spectrophotometric at […] nm, Michaelis-Menten. The conditions noted are these: 20 mM Tris-HCl pH 7.5, 2 mM MgSO4, 75 mM KCl, 25°C; 0-7.5 mM PEP; reverse reaction.

What is called Km is the concentration of substrate that gives half-maximal velocity. In the case of `O=C(O)[C@@H](CO)OP(=O)(O)O` [2-phosphoglycerate], the Km in assay [1] was found to be 1540 µM. Consider `O=P(O)(O)OC[C@H]1OC(O)(COP(=O)(O)O)[C@@H](O)[C@@H]1O` (stereo partly drawn) [D-Fru-1,6-P2], for which the Km in assay [2] was found to be 2060 µM.

For `C=C(OP(=O)(O)O)C(=O)O` [Phosphoenol pyruvate], the Km in assay [3] came out at 3370 µM.
